Measurements taken from publication PMC6259458, “Investigating the Spectrum of Biological Activity of Ring-Substituted Salicylanilides and Carbamoylphenylcarbamates” (Molecules, 2010).
In brackets after ≈: the same amount, converted by molar mass.

System: photosynthetic electron transport (PET) in spinach chloroplasts
Assay: Inhibition of photosynthetic electron transport (PET) in spinach chloroplasts, DCPIP photoreduction
Type: biochemical, Spinacia oleracea L.
Details: DCPIP photoreduction, pH 7.2
Procedure: Chloroplasts were prepared from spinach (Spinacia oleracea L.) according to Masarovicova and Kralova. The inhibition of photosynthetic electron transport (PET) in spinach chloroplasts was determined spectrophotometrically (Genesys 6, Thermo Scientific, USA), using an artificial electron acceptor 2,6-dichlorophenol-indophenol (DCIPP) according to Kralova et al., and the rate of photosynthetic electron transport was monitored as a photoreduction of DCPIP. The measurements were carried out in phosphate buffer (0.02 mol/L, pH 7.2) containing sucrose (0.4 mol/L), MgCl2 (0.005 mol/L) and NaCl (0.015 mol/L). The chlorophyll content was 30 mg/L in these experiments and the samples were irradiated (~100 W/m^2) from 10 cm distance with a halogen lamp (250 W) using a 4 cm water filter to prevent warming of the samples (suspension temperature 22 °C). The studied compounds were dissolved in DMSO due to their limited water solubility.

Row | SMILES | IC50
1 | COC(=O)Nc1ccc(C(=O)Nc2cc(C(F)(F)F)ccc2Cl)cc1 [Compound 14, Methyl 4-[2-chloro-5-(trifluoromethyl)phenylcarbamoyl]phenylcarbamate] | 1000 nM

System: Staphylococcus epidermidis H 6966/08
Assay: In vitro anti-bacterial susceptibility, Mueller-Hinton broth
Type: cell-based
Details: H6966/08, 24 h, MIC = IC90 value, NA = no significant activity, read-out: MIC SE 24 h

Row | SMILES | MIC
2 | CC1(C)S[C@@H]2[C@H](NC(=O)Cc3ccccc3)C(=O)N2[C@H]1C(=O)O [PEN, Penicillin G, reference compound] | 31.6 µM (≈ 10.6 µg/mL)

Same assay, conditions: H6966/08, 48 h, MIC = IC90 value, NA = no significant activity, read-out: MIC SE 48 h

Row | SMILES | MIC
3 | CC1(C)S[C@@H]2[C@H](NC(=O)Cc3ccccc3)C(=O)N2[C@H]1C(=O)O [PEN, Penicillin G, reference compound] | 125 µM (≈ 41.8 µg/mL)

System: not listed separately
Assay: Solubility in the PET testing medium (observation)
Type: physicochemical
Details: precipitation during the experiments
From the text: The activity of the rest of the studied compounds was moderate or low relative to the standard. PET inhibition by 8 or 9 could not be determined due to precipitation of the compounds during the experiments. With respect to these small but closed specifically substituted groups of compounds some structure-activity relationships (SAR) can be proposed.

Row | SMILES | solubility in the testing medium
4 | O=C(Nc1ccccc1Cl)c1ccc([N+](=O)[O-])cc1 [Compound 8, N-(2-Chlorophenyl)-4-nitrobenzamide] | low solubility
5 | O=C(NCc1ccccc1Cl)c1ccc([N+](=O)[O-])cc1 [Compound 9, N-(2-Chlorobenzyl)-4-nitrobenzamide] | low solubility

System: human SK-N-MC neuroepithelioma cell line
Assay: In vitro anti-proliferative activity, MTT assay
Type: cell-based
Details: Homo sapiens, SK-N-MC cells, 72 h
Procedure: Therefore, the anti-proliferative activity of compounds 1-5 was examined against the human SK-N-MC neuroepithelioma cell line to determine if there were any undesired cytotoxic side-effects. The SK-N-MC cell line was chosen as the effect of iron chelators on the proliferation of these cells has been extensively examined. The anti-proliferative activity of the evaluated compounds was assessed in comparison to the well-known clinically used iron chelator, desferrioxamine (DFO), and the highly cytotoxic chelator, di-2-pyridylketone 4,4-dimethyl-3-thiosemicarbazone (Dp44mT).
The human SK-N-MC neuroepithelioma cell type was obtained from the American Type Culture Collection (Manassas, VA, USA) and was cultured in minimum essential medium (MEM; Gibco, Melbourne, Australia) containing 10% (v/v) FBS, 1.0 mM sodium pyruvate (Gibco), 1% (v/v) non-essential amino acids (Gibco), 2 mM L-glutamine (Gibco), 100 U/mL penicillin (Gibco), streptomycin (Gibco) and 0.28 μg/mL fungizone (Squibb Pharmaceuticals, Montreal, Canada). […]
The effect of the compounds on cellular proliferation was determined by the MTT [1-(4,5-dimethylthiazol-2-yl)-2,5-diphenyl tetrazolium] assay using standard techniques. […] After solubilization of the cells with 100 μL of 10% SDS-50% isobutanol in 0.01 M HCl, the plates were read at 570 nm using a scanning multi-well spectrophotometer.

Row | SMILES | IC50
6 | CC(=O)N(O)CCCCCNC(=O)CCC(=O)N(O)CCCCCNC(=O)CCC(=O)N(O)CCCCCN [DFO, desferrioxamine] | 17100 ± 3770 nM

Same assay, conditions: SK-N-MC cells, 72 h

Row | SMILES | IC50
7 | CN(C)C(=S)NN=C(c1ccccn1)c1ccccn1 [Dp44mT, di-2-pyridylketone 4,4-dimethyl-3-thiosemicarbazone] | 10 ± 10 nM

System: Trichophyton mentagrophytes 445
Assay: In vitro anti-fungal susceptibility, broth microdilution
Type: cell-based
Details: 72 h, MIC = IC50 value, NA = no significant activity, read-out: MIC TM 72 h
Procedure: (§1) The broth microdilution test was used for the assessment of in vitro anti-fungal activity of the synthesized compounds against Absidia corymbifera 272 (AC) and Trichophyton mentagrophytes 445 (TM). Fluconazole (FLU) was used as the standard since it is a clinically used anti-mycotic drug. The procedure was performed with a two-fold dilution of the compounds in […]., Prague, Czech Republic) buffered to pH 7.0 with 0.165 mol of 3-morpholino-propane-1-sulfonic acid (MOPS, Sigma, Germany). […] Drug-free controls were included. […] The values of the minimum inhibitory concentration (MICs) were determined after 24 and 48 h of static incubation at 35 °C. For T. mentagrophytes, the final MICs were determined after 72 and 120 h of incubation.

Row | SMILES | MIC
8 | OC(Cn1cncn1)(Cn1cncn1)c1ccc(F)cc1F [FLU, Fluconazole, reference compound] | 1.95 µM (≈ 0.597 µg/mL)

Same assay, conditions: 120 h, MIC = IC50 value, NA = no significant activity, read-out: MIC TM 120 h

Row | SMILES | MIC
9 | OC(Cn1cncn1)(Cn1cncn1)c1ccc(F)cc1F [FLU, Fluconazole, reference compound] | 3.91 µM (≈ 1.2 µg/mL)

System: Absidia corymbifera 272
Assay: as above
Type: cell-based
Details: Lichtheimia corymbifera, 272, 24 h; read-out: MIC AC 24 h
Procedure: as §1

Row | SMILES | MIC
10 | OC(Cn1cncn1)(Cn1cncn1)c1ccc(F)cc1F [FLU, Fluconazole, reference compound] | > 125 µM

Same assay, conditions: Lichtheimia corymbifera, 272, 48 h; read-out: MIC AC 48 h

Row | SMILES | MIC
11 | OC(Cn1cncn1)(Cn1cncn1)c1ccc(F)cc1F [FLU, Fluconazole, reference compound] | > 125 µM

System: not listed separately
Assay: Lipophilicity determination by RP-HPLC (capacity factor k / log k)
Type: physicochemical
Details: C18 column, MeOH 70% / H2O 30%, isocratic
Procedure: Hydrophobicities (log P/Clog P) of the compounds 1-5 and 8-14 were calculated using two commercially available programs (ChemDraw Ultra 10.0 and ACD/LogP) and also measured by means of the RP-HPLC determination of capacity factors k with subsequent calculation of log k. The procedure was performed under isocratic conditions with methanol as an organic modifier in the mobile phase using an end-capped non-polar C18 stationary RP column. The results are shown in Table 1 and illustrated in Figure 1.
A Waters Alliance 2695 XE HPLC separation module and a Waters Photodiode Array Detector 2996 (Waters Corp., Milford, MA, USA) were used. A Symmetry® C18 5 μm, 4.6 × 250 mm, Part No. WAT054275 (Waters Corp., Milford, MA, USA) chromatographic column was used. The HPLC separation process was monitored by Empower™ 2 Chromatography Data Software, Waters 2009 (Waters Corp., Milford, MA, USA). A mixture of MeOH p.a. (70%) and H2O-HPLC – Mili-Q Grade (30%) was used as a mobile phase. The total flow of the column was 1.0 mL/min, injection volume 30 μL, column temperature 30 °C and sample temperature 10°C. The detection wavelength of 210 nm was chosen. The KI methanolic solution was used for the dead time (tD) determination. Retention times (tR) were measured in minutes. The capacity factors k were calculated using the Empower™ 2 Chromatography Data Software according to formula k = (tR - tD)/tD, where tR is the retention time of the solute, whereas tD denotes the dead time obtained using an unretained analyte. Log k, calculated from the capacity factor k, is used as the lipophilicity index converted to log P scale.

Row | SMILES | log k
12 | O=C(Nc1ccccc1Cl)c1ccc([N+](=O)[O-])cc1 [Compound 8, N-(2-Chlorophenyl)-4-nitrobenzamide] | 0.6782
13 | O=C(NCc1ccccc1Cl)c1ccc([N+](=O)[O-])cc1 [Compound 9, N-(2-Chlorobenzyl)-4-nitrobenzamide] | 0.6966
14 | COC(=O)Nc1ccc(C(=O)Nc2cc(C(F)(F)F)ccc2Cl)cc1 [Compound 14, Methyl 4-[2-chloro-5-(trifluoromethyl)phenylcarbamoyl]phenylcarbamate] | 0.7782

System: methicilin resistant Staphylococcus aureus H 5996/08
Assay: In vitro anti-bacterial susceptibility, Mueller-Hinton broth
Type: cell-based
Details: MRSA; methicillin-resistant Staphylococcus aureus, 24 h, MIC = IC90 value; NA = no significant activity; read-out: MIC MRSA 24 h

Row | SMILES | MIC
15 | CC1(C)S[C@@H]2[C@H](NC(=O)Cc3ccccc3)C(=O)N2[C@H]1C(=O)O [PEN, Penicillin G, reference compound] | 125 µM (≈ 41.8 µg/mL)

Same assay, conditions: MRSA; methicillin-resistant Staphylococcus aureus, 48 h, MIC = IC90 value; NA = no significant activity; read-out: MIC MRSA 48 h

Row | SMILES | MIC
16 | CC1(C)S[C@@H]2[C@H](NC(=O)Cc3ccccc3)C(=O)N2[C@H]1C(=O)O [PEN, Penicillin G, reference compound] | 125 µM (≈ 41.8 µg/mL)

System: not given
Assay: not given
Set-up: method as in PMID 1151976
Details: parameter of the substituents in the anilide part; cited from earlier work

Row | SMILES | MR (bulk parameter, reflecting bulkiness) | σ (Hammett's parameter)
17 | O=C(Nc1ccccc1Cl)c1ccc([N+](=O)[O-])cc1 [Compound 8, N-(2-Chlorophenyl)-4-nitrobenzamide] | 4.7 | 0.67
18 | O=C(NCc1ccccc1Cl)c1ccc([N+](=O)[O-])cc1 [Compound 9, N-(2-Chlorobenzyl)-4-nitrobenzamide] | 4.7 | 0.67
19 | COC(=O)Nc1ccc(C(=O)Nc2cc(C(F)(F)F)ccc2Cl)cc1 [Compound 14, Methyl 4-[2-chloro-5-(trifluoromethyl)phenylcarbamoyl]phenylcarbamate] | 8.7 | 1.10
